Assay results from PubChem BioAssay AID1963834 (Molecular Pharmacology Branch, DTP, NCI, 2024).

System: 873145-292-R-J1-PDC complex spheroid viability
Experiment: Anticancer human tumor 873145-292-R-J1-PDC patient-derived renal clear cell carcinoma cell line growth inhibition [POLQ]
Conditions: for IC50: curve of first compound; for viability, T/C: stronger effect = lower value
Protocol: Multicellular complex tumor spheroid response to Polymerase (POL) inhibitors (novobiocin, ART-558, RP6685) in combination with a variety of drugs and investigational agents in selected tumor cell lines
The POL inhibitors (novobiocin, ART-558, and RP6685) were evaluated both individually and in combination with standard of care and investigational anticancer small molecules within a complex spheroid model of solid tumors. . Complex spheroids include a stromal component modeled by human endothelial cells (HUVEC) and fibroblasts modeled by human mesenchymal stem cells (MSCs). The concentration ranges selected for each drug and investigational agent were based upon clinically achievable concentrations if the clinical Cmax of the agent was known.
Compounds. The drugs and investigational agents: novobiocin (NSC847541), ART-558 (NSC835418), RP-6685 (NSC848927), peposertib (NSC802822), ceralasertib (NSC780249), elimusertib (NSC800525), camonsertib (NSC841442), AZD-1390 (NSC803789), olaparib (NSC753686), talazoparib (NSC767125), rucaparib (NSC756644), sotorasib (NSC818433), MRTX-1133 (NSC836407), SN-38 (NSC673596), topotecan (NSC609699), epotoside (NSC141540), doxorubicin (NSC123127), gemcitabine (NSC613327), 5-fluorouracil (NSC19893), paclitaxel (NSC125973), vemurafenib (NSC761431), MSA-2 (NSC828583), SN-011 (NSC837082), adavosertib (NSC754352), prexasertib (NSC758257), carboplatin (NSC241240) and oxaliplatin (NSC266046), were obtained from the National Cancer Institute (NCI) Developmental Therapeutics Program Chemical Repository (21). The FDA-approved anticancer drug set is available from the Developmental Therapeutics Program at https://dtp.cancer.gov/organization/dscb/obtaining/. […] The stock solutions were prepared in dimethyl sulfoxide (DMSO, Sigma-Aldrich, St. Louis, MO, cat. D2650), except for the platinum compounds which were prepared in saline (Quality Biological, Gaithersburg, MD, cat. 114-055-101), at 800-fold the tested concentration and stored at -70 degrees C prior to their use. All drugs and investigational agents were tested over a range starting from a high concentration at or near the clinical Cmax and decreasing in half-log increments. If the clinical Cmax for an agent had not been determined, the highest concentration tested was 10 microM, except for SN-38, which was tested at a high concentration of 1 microM.
Cell Culture. All cells were maintained in an incubator at 37 degrees C and 5% CO2 with 95% humidity. The PDC lines were cultured according to standard operating procedures established by the NCI PDMR (https://pdmr.cancer.gov). Table 3 of the manuscript, lists the cell lines along with the number of the three cell types plated to form the mct-spheroids and media for tumor cell growth. After thawing, all PDC lines, except 997537-175-T-J1-PDC and 415267-285-R-J2-PDC, were cultured in Matrigel-coated flasks prepared with a working solution of 1X Ham's F-12 nutrient mix, without supplementation (Thermo Fisher Scientific, cat. 11765054), 100 U/mL penicillin-streptomycin (Thermo Fisher Scientific, cat. 15140122), and 2.5% Matrigel (Corning Inc., Corning, NY, cat. 354248) for the first three passages. The two PDC lines 997537-175-T-J1-PDC and 415267-285-R-J2-PDC were cultured on uncoated flasks. The 857933-349-R-J2-PDC line was cultured in 6C/Colon 1B media containing advanced DMEM/F-12 (Thermo Fisher Scientific, cat. 12634028), 10 mM HEPES (Thermo Fisher Scientific, cat. 15630080), 1X GlutaMAX supplement (Thermo Fisher Scientific, cat. 35050061), 0.1 mg/mL primocin (InvivoGen, San Diego, CA, cat. ant-pm-2), 10% defined fetal bovine serum, heat inactivated (HyClone Laboratories Inc., Logan, UT, cat. SH30070.03HI), 50% L-WRN conditioned media (ATCC, cat. CRL-3276), 1.25 mM N-Acetyl-L-cysteine (Sigma-Aldrich, cat. A9165), 10 mM nicotinamide (Sigma-Aldrich, cat. N0636), 1X B-27 supplement (Thermo Fisher Scientific, cat. 17504044), 1X N-2 supplement (Thermo Fisher Scientific, cat. […]
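Note: spheroids exposed to compounds for 7 days before viability readout.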
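Throughout, for viability, T/C: luminescence signal used as surrogate for viable cell content; 100% = DMSO vehicle control viability.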

CC(=O)O[C@H]1C(=O)[C@@]2(C)[C@H]([C@H](OC(=O)c3ccccc3)[C@]3(O)C[C@H](OC(=O)[C@H](O)[C@@H](NC(=O)c4ccccc4)c4ccccc4)C(C)=C1C3(C)C)[C@]1(OC(C)=O)CO[C@@H]1C[C@@H]2O + COC1C(OC(N)=O)C(O)C(Oc2ccc3c(O)c(NC(=O)c4ccc(O)c(CC=C(C)C)c4)c(=O)oc3c2C)OC1(C)C
IC50 (second compound 0.0316 µM): > 3 µM | IC50 (second compound 0.1 µM): > 3 µM | IC50 (second compound 0.316 µM): > 3 µM | IC50 (second compound 1 µM): > 3 µM | IC50 (second compound 3.16 µM): > 3 µM | IC50 (second compound 10 µM): > 3 µM | viability, T/C (second compound 0.0316 µM, first compound 0.00949 µM): 90.9% | viability, T/C (second compound 0.0316 µM, first compound 0.03 µM): 67.2% | viability, T/C (second compound 0.0316 µM, first compound 0.0949 µM): 67.1% | viability, T/C (second compound 0.0316 µM, first compound 0.3 µM): 61.8% | viability, T/C (second compound 0.0316 µM, first compound 0.949 µM): 60.2% | viability, T/C (second compound 0.0316 µM, first compound 3 µM): 66.4% | viability, T/C (second compound 0.1 µM, first compound 0.00949 µM): 77.6% | viability, T/C (second compound 0.1 µM, first compound 0.03 µM): 75.2% | viability, T/C (second compound 0.1 µM, first compound 0.0949 µM): 73.9% | viability, T/C (second compound 0.1 µM, first compound 0.3 µM): 58.5% | viability, T/C (second compound 0.1 µM, first compound 0.949 µM): 58.5% | viability, T/C (second compound 0.1 µM, first compound 3 µM): 57.3% | viability, T/C (second compound 0.316 µM, first compound 0.00949 µM): 79.1% | viability, T/C (second compound 0.316 µM, first compound 0.03 µM): 73.5% | viability, T/C (second compound 0.316 µM, first compound 0.0949 µM): 66.6% | viability, T/C (second compound 0.316 µM, first compound 0.3 µM): 60.9% | viability, T/C (second compound 0.316 µM, first compound 0.949 µM): 55.7% | viability, T/C (second compound 0.316 µM, first compound 3 µM): 60.1% | viability, T/C (second compound 1 µM, first compound 0.00949 µM): 84% | viability, T/C (second compound 1 µM, first compound 0.03 µM): 77.7% | viability, T/C (second compound 1 µM, first compound 0.0949 µM): 74.8% | viability, T/C (second compound 1 µM, first compound 0.3 µM): 59% | viability, T/C (second compound 1 µM, first compound 0.949 µM): 57.6% | viability, T/C (second compound 1 µM, first compound 3 µM): 57.8% | viability, T/C (second compound 3.16 µM, first compound 0.00949 µM): 77.4% | viability, T/C (second compound 3.16 µM, first compound 0.03 µM): 72.5% | viability, T/C (second compound 3.16 µM, first compound 0.0949 µM): 70.1% | viability, T/C (second compound 3.16 µM, first compound 0.3 µM): 57.9% | viability, T/C (second compound 3.16 µM, first compound 0.949 µM): 58.1% | viability, T/C (second compound 3.16 µM, first compound 3 µM): 58.3% | viability, T/C (second compound 10 µM, first compound 0.00949 µM): 78.4% | viability, T/C (second compound 10 µM, first compound 0.03 µM): 69.1% | viability, T/C (second compound 10 µM, first compound 0.0949 µM): 62.3% | viability, T/C (second compound 10 µM, first compound 0.3 µM): 55.7% | viability, T/C (second compound 10 µM, first compound 0.949 µM): 64.1% | viability, T/C (second compound 10 µM, first compound 3 µM): 58.6%
